Patent publication US12268694B2, “Combination pharmaceutical agents as RSV inhibitors” (Enanta Pharmaceuticals, Inc., priority 2017, dated 2025)

System: genotype A, "Long" strain RSV
Assay: RSV-A assay: CPE protection in HEp-2 cells, ATPlite readout
Type: cell-based, human respiratory syncytial virus
Conditions: human respiratory syncytial virus, HEp-2, read-out: Human RSV-A (“Long” strain) EC50
Description: HEp-2 cells, (originally derived from tumors grown in irradiated-cortisonised weanling rats that had been injected with epidermoid carcinoma tissue from a person's larynx, but later found to be indistinguishable from HeLa cells by PCR DNA analysis), were used for the culturing of genotype A, “Long” strain RSV. Flasks were inoculated with RSV and viral stocks were collected once cytopathic effect (CPE) was greater than 90%. Viral stocks in 25% sucrose media were snap frozen using liquid nitrogen to increase viral stability. Viral stock titers were quantified by tissue culture infectious dose 50% (TCID50) using 8,000 cells per well and 3-fold viral dilutions across a 96-well plate, cultured for 4 days. Viral stock titers were also quantified by a plaque forming unit assay, as described elsewhere.
Following extensive parameter testing, the final assay is run as follows: HEp-2 cells are seeded into the inner 60 wells of a 96-well plate at 8,000 cells per well in a volume of 50 μL using Growth Media (DMEM without phenol red, 1% L-Glut, 1% Penn/Strep, 1% nonessential amino acids, 10% heat-inactivated FBS). 2-fold serial dilutions of control and test compounds are added to the wells in duplicate in a total volume of 25 μL. Viral stock is then added to the wells at a multiplicity of infection (MOI) of 0.1 in a volume of 25 μL, bringing the total volume of each well to 100 μL. The MOI is calculated using the PFU/mL, or TCID50 if unavailable. Each 96-well plate has a control column of 6 wells with cells and virus but no compound (negative control, max CPE), a column with cells but no compound or virus (positive control, minimum CPE), and a column with no cells or virus or compound (background plate/reagent control). The control wells with cells but no virus are given an additional 25 μL of growth media containing an equal quantity of sucrose as those wells receiving the viral stock in order to keep consistent in media and volume conditions. The outer wells of the plate are filled with 125 μL of moat media (DMEM, 1% Penn/Strep) to act as a thermal and evaporative moat around the test wells. Following a 5-day incubation period, the plates are read using ATPlite (50 μL added per well), which quantifies the amount of ATP (a measure of cell health) present in each well. Assay plates are read using the Envision luminometer. In parallel, cytotoxicity is examined on an additional 96-well plate treated in an identical manner, but substituting the 25 μL of viral stock for 25 μL of growth media. […] EC50 ranges are as follows: A <0.4 μM; B 0.4-0.8 μM; C >0.8 μM and CC50 ranges are as follows: A >50 μM; B 10-50 μM; C <10 μM.

| Structure (SMILES) | EC50 [nM] |
| --- | --- |
| CN1CCC(N2CCC[C@H]2c2nnc(NC3N=C(c4ccccc4)c4ccccc4NC3=O)o2)CC1 (stereo partly drawn) [Example 228] | > 800 |
| COCCOc1ccccc1-c1nnc(NC2N=C(c3ccccc3)c3ccccc3NC2=O)o1 (stereo not drawn) [Example 229] | > 800 |
| CC1(Nc2nnc(-c3ccc(F)cc3)o2)N=C(c2ccccc2)c2ccccc2NC1=O (stereo not drawn) [Example 230] | > 800 |
| O=C1Nc2ccccc2C(c2ccccc2)=NC1Nc1nnc(-c2ccc(-n3ccnc3)cc2)o1 (stereo not drawn) [Example 231] | < 400 |
| O=C1Nc2ccccc2C(c2ccccc2)=NC1Nc1nnc(-c2ccc(-n3ccnc3)nc2)o1 (stereo not drawn) [Example 232] | > 800 |
| O=C1Nc2ccccc2C(c2ccccc2)=NC1Nc1nnc(-c2ccc(-n3cnnc3)cc2)o1 (stereo not drawn) [Example 233] | > 800 |
| CN(C)CCOc1ccccc1-c1nnc(NC2N=C(c3ccccc3)c3ccccc3NC2=O)o1 (stereo not drawn) [Example 234] | > 800 |
| COCCOc1ccc(-c2nnc(NC3N=C(c4ccccc4)c4ccccc4NC3=O)o2)cc1 (stereo not drawn) [Example 236] | > 800 |
| CN1CCN(c2ncccc2-c2nnc(NC3N=C(c4ccccc4)c4ccccc4NC3=O)o2)CC1 (stereo not drawn) [Example 237] | > 800 |
| CN[C@H](c1ccccc1)c1nnc(NC2N=C(c3ccccc3)c3ccccc3NC2=O)o1 (stereo partly drawn) [Example 238] | > 800 |
| O=C1Nc2ccccc2C(c2ccccc2)=NC1Nc1nnc(-c2ccccc2OC2CCOCC2)o1 (stereo not drawn) [Example 239] | > 800 |
| O=C1Nc2ccccc2C(c2ccccc2)=NC1Nc1nnc(-c2ccccc2N2CCS(=O)(=O)CC2)o1 (stereo not drawn) [Example 240] | > 800 |
| O=C1Nc2ccccc2C(c2ccccc2)=NC1Nc1nnc(-c2cccnc2N2CCCCC2)o1 (stereo not drawn) [Example 241] | > 800 |
| C[C@@H]1CN(c2ccc(-c3nnc(N[C@H]4N=C(c5ccccc5)c5ccccc5NC4=O)o3)c(Cl)c2)C[C@H](C)O1 [Example 243] | > 800 |
| O=C1Nc2ccccc2C(c2ccccc2)=N[C@@H]1Nc1nnc(-c2ccc(N3C4CCC3COC4)cc2Cl)o1 [Example 244] | > 800 |
| O=C1Nc2ccccc2C(c2ccccc2)=NC1Nc1nnc(-c2cccnc2N2CCCC(F)(F)C2)o1 (stereo not drawn) [Example 246] | > 800 |
| CO[C@H]1CCN(c2ncccc2-c2nnc(NC3N=C(c4ccccc4)c4ccccc4NC3=O)o2)C1 (stereo partly drawn) [Example 247] | > 800 |
| O=C1Nc2ccccc2C(c2ccccc2)=NC1Nc1nnc(-c2cccnc2N2C[C@@H]3C[C@H]2CO3)o1 (stereo partly drawn) [Example 248] | > 800 |
| COC1CCN(c2ncccc2-c2nnc(NC3N=C(c4ccccc4)c4ccccc4NC3=O)o2)CC1 (stereo not drawn) [Example 254] | > 800 |
| O=C1Nc2ccccc2C(c2ccccc2)=NC1Nc1nnc(-c2cccnc2N2CCC(O)CC2)o1 (stereo not drawn) [Example 255] | > 800 |

| Structure (SMILES) | EC50 [nM] |
| --- | --- |
| O=C1Nc2ccccc2C(c2ccccc2)=NC1Nc1nnc(-c2cccnc2N2CCC(F)CC2)o1 (stereo not drawn) [Example 256] | > 800 |
| COC1CN(c2ncccc2-c2nnc(NC3N=C(c4ccccc4)c4ccccc4NC3=O)o2)C1 (stereo not drawn) [Example 258] | > 800 |
| O=C1Nc2ccccc2C(c2ccccc2)=NC1Nc1nnc(-c2cccnc2N2CC(F)(F)C2)o1 (stereo not drawn) [Example 259] | > 800 |
| N#CC1CCN(c2ncccc2-c2nnc(NC3N=C(c4ccccc4)c4ccccc4NC3=O)o2)CC1 (stereo not drawn) [Example 260] | > 800 |
| C[C@H]1COCCN1c1ncccc1-c1nnc(NC2N=C(c3ccccc3)c3ccccc3NC2=O)o1 (stereo partly drawn) [Example 261] | > 800 |
| C[C@@H]1CN(c2ncccc2-c2nnc(NC3N=C(c4ccccc4)c4ccccc4NC3=O)o2)CCO1 (stereo partly drawn) [Example 262] | > 800 |
| O=C1Nc2ccccc2C(c2ccccc2)=NC1Nc1nnc(-c2cccnc2N2C[C@H]3C[C@@H]2CO3)o1 (stereo partly drawn) [Example 264] | > 800 |
| O=C1Nc2ccccc2C(c2ccccc2)=NC1Nc1nnc(-c2cccnc2N2C3CCC2COC3)o1 (stereo not drawn) [Example 265] | > 800 |
| O=C1Nc2ccccc2C(c2ccccc2)=NC1Nc1nnc(-c2cccnc2N2CC3CCC(C2)O3)o1 (stereo not drawn) [Example 266] | 400 to 800 |
| O=C1Nc2ccccc2C(c2ccccc2)=NC1Nc1nnc(-c2cccnc2N2C[C@H]3COC[C@H]3C2)o1 (stereo partly drawn) [Example 267] | > 800 |
| O=C1Nc2ccccc2C(c2ccccc2)=NC1Nc1nnc(-c2cccnc2N2CCn3ncnc3C2)o1 (stereo not drawn) [Example 270] | > 800 |
| COC1CN(c2cc(C(F)(F)F)cnc2-c2nnc(N[C@H]3N=C(c4ccccc4)c4ccccc4NC3=O)o2)C1 [Example 271] | > 800 |
| O=C1Nc2ccccc2C(c2ccccc2)=NC1Nc1nnc(-c2ccc(-n3cncn3)cc2)o1 (stereo not drawn) [Example 273] | 400 to 800 |
| N#CC1CN(c2ncccc2-c2nnc(NC3N=C(c4ccccc4)c4ccccc4NC3=O)o2)C1 (stereo not drawn) [Example 274] | > 800 |
| O=C1Nc2ccccc2C(c2ccccc2)=N[C@@H]1Nc1nnc(-c2ccc(C(F)(F)F)nc2N2C3CCC2COC3)o1 [Example 275] | > 800 |
| Cc1ccc(-c2nnc(N[C@H]3N=C(c4ccccc4)c4ccccc4NC3=O)o2)c(N2CC3CCC(C2)O3)n1 [Example 279] | < 400 |
| Cc1ccc(-c2nnc(N[C@H]3N=C(c4ccccc4)c4ccccc4NC3=O)o2)c(N2C3CCC2COC3)n1 [Example 280] | < 400 |
| N#Cc1ccc(-c2nnc(N[C@H]3N=C(c4ccccc4)c4ccccc4NC3=O)o2)c(N2CC3CCC(C2)O3)c1 [Example 281] | < 400 |
| O=C1Nc2ccccc2C(c2ccccc2)=N[C@@H]1Nc1nnc(-c2ncc(C(F)(F)F)cc2-c2ccncc2)o1 [Example 282] | > 800 |
| O=C1Nc2ccccc2C(c2ccccc2)=NC1Nc1nnc(-c2ccccc2-n2cccn2)o1 (stereo not drawn) [Example 283] | > 800 |

| Structure (SMILES) | EC50 [nM] |
| --- | --- |
| C[C@@H]1CN(c2cc(F)ccc2-c2nnc(N[C@H]3N=C(c4ccccc4)c4ccccc4NC3=O)o2)C[C@H](C)O1 [Example 284] | > 800 |
| C[C@@H]1COCCN1c1cc(C#N)ccc1-c1nnc(N[C@H]2N=C(c3ccccc3)c3ccccc3NC2=O)o1 [Example 285] | < 400 |
| Cc1ccc(-c2nnc(N[C@H]3N=C(c4ccccc4)c4ccccc4NC3=O)o2)c(N2CCOC[C@H]2C)n1 [Example 286] | < 400 |
| O=C1Nc2ccccc2C(c2ccccc2)=N[C@@H]1Nc1nnc(-c2ccc(F)cc2N2CC3CCC(C2)O3)o1 [Example 288] | 400 to 800 |
| N#Cc1ccc(-c2nnc(N[C@H]3N=C(c4ccccc4)c4ccccc4NC3=O)o2)c(N2C3CCC2COC3)c1 [Example 289] | < 400 |
| O=C1Nc2ccccc2C(c2ccccc2)=N[C@@H]1Nc1nnc(-c2cnc(C(F)(F)F)nc2N2CC3CCC(C2)O3)o1 [Example 290] | > 800 |
| N#Cc1c[nH]c2cc(-c3nnc(N[C@H]4N=C(c5ccccc5)c5ccccc5NC4=O)o3)ccc12 [Example 291] | > 800 |
| O=C1Nc2ccccc2C(c2ccccc2)=N[C@@H]1Nc1nnc(-c2nnsc2N2CCOCC2)o1 [Example 292] | < 400 |
| O=C1Nc2ccccc2C(c2ccccc2)=N[C@@H]1Nc1nnc(-c2ncc(C(F)(F)F)cc2C2CC2)o1 [Example 293] | > 800 |
| C[C@@H]1COCCN1c1cc(C(F)(F)F)cnc1-c1nnc(N[C@H]2N=C(c3ccccc3)c3ccccc3NC2=O)o1 [Example 294] | < 400 |
| COc1ccc(-c2nnc(N[C@H]3N=C(c4ccccc4)c4ccccc4NC3=O)o2)c(N2CCOCC2)n1 [Example 295] | < 400 |
| CN1CCN(c2cc(C(F)(F)F)cnc2-c2nnc(N[C@H]3N=C(c4ccccc4)c4ccccc4NC3=O)o2)CC1=O [Example 296] | > 800 |
| CC(C)(O)CNc1cc(C(F)(F)F)cnc1-c1nnc(N[C@H]2N=C(c3ccccc3)c3ccccc3NC2=O)o1 [Example 297] | < 400 |
| COCCn1c(-c2nnc(N[C@H]3N=C(c4ccccc4)c4ccccc4NC3=O)o2)nc2ccccc21 [Example 298] | > 800 |
| O=C1Nc2ccccc2C(c2ccccc2)=N[C@@H]1Nc1nnc(-c2ncc(F)cc2N2CC3CCC(C2)O3)o1 [Example 299] | < 400 |
| C[C@@H]1COCCN1c1cc(C#N)cnc1-c1nnc(N[C@H]2N=C(c3ccccc3)c3ccccc3NC2=O)o1 [Example 301] | < 400 |
| CN(C)c1cc(C(F)(F)F)cnc1-c1nnc(N[C@H]2N=C(c3ccccc3)c3ccccc3NC2=O)o1 [Example 302] | > 800 |
| COCCNc1cc(C(F)(F)F)cnc1-c1nnc(N[C@H]2N=C(c3ccccc3)c3ccccc3NC2=O)o1 [Example 305] | < 400 |
| COCCn1ccnc1-c1nnc(N[C@H]2N=C(c3ccccc3)c3ccccc3NC2=O)o1 [Example 306] | > 800 |
| CNc1cc(C(F)(F)F)cnc1-c1nnc(N[C@H]2N=C(c3ccccc3)c3ccccc3NC2=O)o1 [Example 307] | > 800 |
